Data set [1] has as its target T1, Cytochrome P450 2E1 (Homo sapiens, UniProt P05181). Put plainly: Mechanism based inhibition of human cytochrome P450 2E1 measured by chlorzoxazone 6-hydroxylase activity. It counts as ADME.
The target of data set [2] is T2, Cytochrome P450 1A2 (Homo sapiens, UniProt P05177).
T2 sequence (P05177 whole entry): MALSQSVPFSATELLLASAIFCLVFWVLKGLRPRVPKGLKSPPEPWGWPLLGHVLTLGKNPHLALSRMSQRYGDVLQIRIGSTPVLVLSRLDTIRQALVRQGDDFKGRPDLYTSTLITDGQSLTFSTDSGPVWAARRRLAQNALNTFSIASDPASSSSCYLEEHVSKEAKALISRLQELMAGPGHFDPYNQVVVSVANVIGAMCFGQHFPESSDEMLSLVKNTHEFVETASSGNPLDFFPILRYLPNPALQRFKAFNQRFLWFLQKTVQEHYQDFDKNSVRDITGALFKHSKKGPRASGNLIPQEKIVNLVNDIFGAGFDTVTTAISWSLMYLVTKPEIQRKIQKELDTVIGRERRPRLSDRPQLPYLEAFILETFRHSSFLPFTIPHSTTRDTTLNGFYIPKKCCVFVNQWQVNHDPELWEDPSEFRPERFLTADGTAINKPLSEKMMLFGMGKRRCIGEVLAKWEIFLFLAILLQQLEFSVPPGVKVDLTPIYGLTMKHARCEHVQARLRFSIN
Kind of data set: Mechanism based inhibition of human cytochrome P450 1A2 measured by phenacetin O-deethylation (POD). It counts as ADME.

For data set [3], the target named is T3, Cytochrome P450 2C8 (Homo sapiens, UniProt P10632).
T3 sequence (P10632 whole entry): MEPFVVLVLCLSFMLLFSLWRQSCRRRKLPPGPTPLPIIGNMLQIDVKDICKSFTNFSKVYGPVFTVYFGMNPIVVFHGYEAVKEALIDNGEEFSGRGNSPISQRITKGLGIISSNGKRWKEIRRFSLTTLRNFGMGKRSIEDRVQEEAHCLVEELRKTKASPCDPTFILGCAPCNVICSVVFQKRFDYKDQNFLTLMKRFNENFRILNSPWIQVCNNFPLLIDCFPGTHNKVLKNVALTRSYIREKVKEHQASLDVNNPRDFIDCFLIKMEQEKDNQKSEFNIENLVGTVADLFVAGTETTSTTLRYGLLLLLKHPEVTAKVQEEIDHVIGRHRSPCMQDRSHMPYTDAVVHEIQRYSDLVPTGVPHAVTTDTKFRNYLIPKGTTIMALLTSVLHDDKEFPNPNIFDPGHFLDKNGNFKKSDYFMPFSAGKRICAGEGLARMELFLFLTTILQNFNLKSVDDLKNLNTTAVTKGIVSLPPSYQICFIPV
Description: (§4) Mechanism based inhibition of human cytochrome P450 2C8 measured by paclitaxel hydroxylation using a recombinant system

Data set [4] deals with T4, Cytochrome P450 2C19 (Homo sapiens, UniProt P33261). Put plainly: Mechanism based inhibition of human cytochrome P450 2C19 evaluated using Tolbutamide. It counts as ADME.
T4 sequence (P33261 whole entry): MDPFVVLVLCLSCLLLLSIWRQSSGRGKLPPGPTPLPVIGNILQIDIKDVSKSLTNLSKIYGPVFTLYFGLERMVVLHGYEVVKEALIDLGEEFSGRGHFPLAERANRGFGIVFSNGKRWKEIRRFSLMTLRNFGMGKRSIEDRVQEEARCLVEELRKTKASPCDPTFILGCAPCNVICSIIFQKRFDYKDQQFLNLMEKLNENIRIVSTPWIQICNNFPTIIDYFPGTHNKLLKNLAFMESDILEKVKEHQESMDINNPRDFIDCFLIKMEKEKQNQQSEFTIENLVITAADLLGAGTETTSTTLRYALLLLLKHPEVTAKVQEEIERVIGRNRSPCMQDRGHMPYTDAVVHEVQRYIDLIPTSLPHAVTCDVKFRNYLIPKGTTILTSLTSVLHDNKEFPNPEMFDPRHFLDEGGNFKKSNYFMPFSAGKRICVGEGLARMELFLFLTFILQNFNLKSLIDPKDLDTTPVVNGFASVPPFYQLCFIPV
In the next data set the target is T5, Cytochrome P450 2A6 (Homo sapiens, UniProt P11509).
T5 sequence (P11509 whole entry): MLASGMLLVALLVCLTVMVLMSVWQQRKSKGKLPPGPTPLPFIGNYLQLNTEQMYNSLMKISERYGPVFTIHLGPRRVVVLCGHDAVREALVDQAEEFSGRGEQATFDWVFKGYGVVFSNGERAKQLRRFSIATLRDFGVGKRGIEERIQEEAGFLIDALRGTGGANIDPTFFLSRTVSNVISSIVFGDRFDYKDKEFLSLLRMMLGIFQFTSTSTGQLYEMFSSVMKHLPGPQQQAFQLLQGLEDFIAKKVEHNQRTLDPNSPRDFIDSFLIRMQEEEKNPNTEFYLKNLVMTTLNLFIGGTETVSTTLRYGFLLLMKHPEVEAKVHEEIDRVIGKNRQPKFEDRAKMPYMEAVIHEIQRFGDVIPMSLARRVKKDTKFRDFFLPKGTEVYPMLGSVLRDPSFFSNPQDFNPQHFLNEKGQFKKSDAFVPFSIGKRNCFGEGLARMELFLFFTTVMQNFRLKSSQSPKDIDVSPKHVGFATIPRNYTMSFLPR
Put plainly: Mechanism based inhibition of human cytochrome P450 2A6 measured by coumarin 7-hydroxylation. It counts as ADME.

Data set [5] addresses T3, Cytochrome P450 2C8. Put plainly: Mechanism based inhibition of human cytochrome P450 2C8 using human liver microsomes. The class given is ADME, Microsome. (Microsomes from liver hold many membrane-bound enzymes, among them those of drug oxidation.)
The target of data set [6] is T4, Cytochrome P450 2C19. Put plainly: Mechanism based inhibition of human cytochrome P450 2C19. It counts as ADME.
The next data set addresses T6, Cytochrome P450 2B6 (Homo sapiens, UniProt P20813).
T6 sequence (P20813 whole entry): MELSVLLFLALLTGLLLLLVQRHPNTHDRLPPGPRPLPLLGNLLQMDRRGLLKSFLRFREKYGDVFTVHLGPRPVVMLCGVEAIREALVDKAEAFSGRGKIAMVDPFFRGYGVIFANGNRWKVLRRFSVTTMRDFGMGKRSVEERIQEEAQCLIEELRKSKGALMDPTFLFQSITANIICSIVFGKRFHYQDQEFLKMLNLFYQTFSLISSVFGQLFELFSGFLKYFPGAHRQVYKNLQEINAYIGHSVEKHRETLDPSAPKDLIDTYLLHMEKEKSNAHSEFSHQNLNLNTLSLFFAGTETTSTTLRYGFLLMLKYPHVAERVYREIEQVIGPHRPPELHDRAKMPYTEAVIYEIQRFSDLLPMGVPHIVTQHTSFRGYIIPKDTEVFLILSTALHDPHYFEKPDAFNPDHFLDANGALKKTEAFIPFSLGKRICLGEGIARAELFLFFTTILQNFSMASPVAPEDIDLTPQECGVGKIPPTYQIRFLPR
Put plainly: Mechanism based inhibition of human cytochrome P450 2B6. The class given is ADME.

Data set [7] concerns the target T7, Cytochrome P450 2C9 (Homo sapiens, UniProt P11712). Kind of data set: Mechanism based inhibition of human cytochrome P450 2C9. The class given is ADME.
Data set [8] has as its target T8, CYP2D6 (Homo sapiens, UniProt P10635). Put plainly: (§1) Mechanism based inhibition of human cytochrome P450 2D6 measured by dextromethorphan O-demethylation using recombinant CYP2D6. The class given is ADME. The following applies: human, recombinant CYP2D6, probe dextromethorphan.
The target in data set [9] is T9, Cytochrome P450 2D6 (Homo sapiens, UniProt P10635). The data set is described as §1. It counts as ADME.
T9 sequence (P10635 whole entry): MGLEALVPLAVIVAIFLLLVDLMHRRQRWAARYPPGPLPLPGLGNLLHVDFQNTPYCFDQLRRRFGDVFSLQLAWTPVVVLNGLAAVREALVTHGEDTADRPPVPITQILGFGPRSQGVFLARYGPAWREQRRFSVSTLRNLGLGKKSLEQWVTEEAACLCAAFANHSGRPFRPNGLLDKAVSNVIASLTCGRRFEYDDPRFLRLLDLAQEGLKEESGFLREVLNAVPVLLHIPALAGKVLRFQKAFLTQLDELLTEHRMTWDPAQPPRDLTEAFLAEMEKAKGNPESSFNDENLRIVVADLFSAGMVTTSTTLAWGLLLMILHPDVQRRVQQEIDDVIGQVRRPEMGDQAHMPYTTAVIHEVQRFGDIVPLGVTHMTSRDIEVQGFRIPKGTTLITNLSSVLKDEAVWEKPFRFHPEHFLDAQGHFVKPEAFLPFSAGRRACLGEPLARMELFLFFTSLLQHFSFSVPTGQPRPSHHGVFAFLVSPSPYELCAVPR
Data set [10] concerns the target T8, CYP2D6. Kind of data set: (§2) Mechanism based inhibition of human cytochrome P450 2D6 measured by dextromethorphan O-demethylation using human liver microsomes. The class given is ADME, Microsome. The following applies: human, human liver microsomes, probe dextromethorphan.
For data set [11], the target named is T9, Cytochrome P450 2D6. The description is as §2. It counts as ADME, Microsome.
Data set [12] concerns the target T10, Cytochrome P450 3A4 (Homo sapiens, UniProt P08684). Kind of data set: Mechanism based inhibition of human cytochrome P450 3A4 measured by 1'-hydroxymidazolam production. The class given is ADME.
For data set [13], the target named is T10, Cytochrome P450 3A4. Put plainly: Mechanism based inhibition of human cytochrome P450 3A4 measured by testosterone 6-beta hydroxylation. The class given is ADME.
In data set [14] the target is T2, Cytochrome P450 1A2. Put plainly: Mechanism based inhibition of human cytochrome P450 1A2 measured by 7-ethoxyresorufin O-deethylation (EROD). The class given is ADME.
Data set [15] addresses T7, Cytochrome P450 2C9. Kind of data set: Mechanism based inhibition of human cytochrome P450 2C9 measured by Tolbutamide methyl hydroxylation. The class given is ADME.
For data set [16], the target named is T3, Cytochrome P450 2C8. This is another data set of the same source.
Description: (§5) Mechanism based inhibition of human cytochrome P450 2C8 measured by paclitaxel hydroxylation using human liver microsomes
Data set [17] addresses T11, CYP2C8 (Homo sapiens, UniProt P10632).
T11 sequence (P10632 whole entry): T3 sequence (P10632 whole entry)
Put plainly: in vitro. The following applies: human liver microsomes, probe paclitaxel.
Description: as §5

The target of data set [18] is T11, CYP2C8. Kind of data set: in vitro. The following applies: recombinant CYP2C8, probe paclitaxel.
Description: as §4
The target in the next data set is T12, Cytochrome P450 2B1 (Rattus norvegicus, UniProt P00176).
T12 sequence (P00176 whole entry): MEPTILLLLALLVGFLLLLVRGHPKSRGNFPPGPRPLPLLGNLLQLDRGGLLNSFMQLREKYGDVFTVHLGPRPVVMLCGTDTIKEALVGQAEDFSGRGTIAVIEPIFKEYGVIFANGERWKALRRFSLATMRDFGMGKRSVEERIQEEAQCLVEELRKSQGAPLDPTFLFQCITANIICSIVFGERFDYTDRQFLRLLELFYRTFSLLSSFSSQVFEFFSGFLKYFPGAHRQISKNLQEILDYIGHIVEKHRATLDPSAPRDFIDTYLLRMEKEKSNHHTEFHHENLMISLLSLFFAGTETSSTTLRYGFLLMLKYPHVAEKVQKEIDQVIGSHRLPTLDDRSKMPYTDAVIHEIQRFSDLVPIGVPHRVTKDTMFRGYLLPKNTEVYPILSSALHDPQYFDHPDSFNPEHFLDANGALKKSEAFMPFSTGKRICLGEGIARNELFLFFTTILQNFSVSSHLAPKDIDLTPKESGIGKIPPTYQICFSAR
Kind of data set: Mechanism based inhibition of rat cytochrome P450 CYP2B1 measured by 7-EFC O-deethylation activity. It counts as ADME. The following applies: rat.

Data set [19] concerns the target T1, Cytochrome P450 2E1. Put plainly: (§3) Mechanism based inhibition of human cytochrome P450 2E1. It counts as ADME.
The next data set addresses CYP2E1 (Homo sapiens, UniProt P05181). Described as §3. The following applies: human. It counts as ADME.
Data set [20] has as its target T7, Cytochrome P450 2C9. Kind of data set: Mechanism based inhibition of human cytochrome P450 2C9 measured by 7-EFC O-deethylation. It counts as ADME.

T7 sequence (P11712 whole entry): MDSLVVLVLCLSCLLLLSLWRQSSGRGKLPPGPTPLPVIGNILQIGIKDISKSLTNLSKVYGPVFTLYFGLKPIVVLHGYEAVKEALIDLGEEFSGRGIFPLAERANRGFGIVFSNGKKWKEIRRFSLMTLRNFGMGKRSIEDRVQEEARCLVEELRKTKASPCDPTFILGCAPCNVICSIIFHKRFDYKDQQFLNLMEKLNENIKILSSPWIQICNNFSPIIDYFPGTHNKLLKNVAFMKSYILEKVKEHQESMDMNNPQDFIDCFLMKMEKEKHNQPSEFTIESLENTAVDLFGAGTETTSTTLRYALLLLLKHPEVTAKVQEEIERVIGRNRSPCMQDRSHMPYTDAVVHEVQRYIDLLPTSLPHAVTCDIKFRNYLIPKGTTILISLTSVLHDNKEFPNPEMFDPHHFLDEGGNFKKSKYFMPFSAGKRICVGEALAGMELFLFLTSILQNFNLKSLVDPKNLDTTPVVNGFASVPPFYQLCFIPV
T1 sequence (P05181 whole entry): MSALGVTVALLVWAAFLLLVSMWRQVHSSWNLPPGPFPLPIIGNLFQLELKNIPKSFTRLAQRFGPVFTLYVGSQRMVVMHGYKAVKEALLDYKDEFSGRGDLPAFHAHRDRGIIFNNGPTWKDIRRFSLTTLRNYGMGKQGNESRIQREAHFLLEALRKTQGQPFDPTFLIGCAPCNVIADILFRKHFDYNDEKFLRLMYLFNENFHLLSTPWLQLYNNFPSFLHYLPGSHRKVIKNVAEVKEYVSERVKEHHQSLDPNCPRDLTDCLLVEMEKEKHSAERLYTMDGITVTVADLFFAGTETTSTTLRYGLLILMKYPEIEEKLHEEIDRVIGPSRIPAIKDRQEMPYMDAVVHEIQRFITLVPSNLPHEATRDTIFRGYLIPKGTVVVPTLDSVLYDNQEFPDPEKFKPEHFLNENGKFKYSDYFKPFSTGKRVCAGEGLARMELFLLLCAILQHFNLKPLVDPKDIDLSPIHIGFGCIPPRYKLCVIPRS
T10 sequence (P08684 whole entry): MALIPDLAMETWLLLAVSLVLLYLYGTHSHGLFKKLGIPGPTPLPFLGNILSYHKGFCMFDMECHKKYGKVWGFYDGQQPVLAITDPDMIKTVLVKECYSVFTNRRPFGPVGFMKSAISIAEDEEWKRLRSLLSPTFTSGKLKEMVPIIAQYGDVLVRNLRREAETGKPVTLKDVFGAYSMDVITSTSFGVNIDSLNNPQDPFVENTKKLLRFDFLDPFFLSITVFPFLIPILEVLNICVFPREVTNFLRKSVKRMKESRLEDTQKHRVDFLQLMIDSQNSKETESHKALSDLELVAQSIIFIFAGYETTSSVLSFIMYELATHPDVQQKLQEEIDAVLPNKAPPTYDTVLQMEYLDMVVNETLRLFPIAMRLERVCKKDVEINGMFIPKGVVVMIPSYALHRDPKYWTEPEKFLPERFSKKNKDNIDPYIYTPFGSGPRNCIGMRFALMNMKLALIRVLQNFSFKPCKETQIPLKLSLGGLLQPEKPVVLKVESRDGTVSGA
T8 sequence (P10635 whole entry): as the sequence (P10635 whole entry) above
Chain of CYP2E1 (P05181 whole entry): as the sequence (P05181 whole entry) above

On to `FC(F)(F)C(Cl)Br` (stereo not given) [HALOTHANE], for which, on Cytochrome P450 2E1 [1], the mechanism based inhibition entry is recorded as “Cytochrome P450 mechanistic inhibitor: PMID 8902272”.

Consider `NNC(=O)c1ccncc1` [ISONIAZID], for which the Ki at Cytochrome P450 1A2 [2] was determined as 56 µM; on Cytochrome P450 2C8 [3], 374 µM; at Cytochrome P450 2C19 [4] it was 10 µM; at Cytochrome P450 2A6, 60 µM; at Cytochrome P450 2C8 [5], 170 µM.

With `Cn1cc[nH]c1=S` [METHIMAZOLE], the mechanism based inhibition entry on Cytochrome P450 2C19 [6], at Cytochrome P450 2B6 and at Cytochrome P450 2C9 [7] was “Cytochrome P450 mechanistic inhibitor: PMID 9172960” each time.

For orientation: kinact means the rate constant of inactivation at saturating inhibitor. On to `CNC(C)Cc1ccc2c(c1)OCO2` (stereo not given) [MIDOMAFETAMINE], for which the inactivation rate constant (kinact) at CYP2D6 [8] was 0.00483 s⁻¹; at CYP2D6 [10] it was 0.00283 s⁻¹. Moreover, the Ki on Cytochrome P450 2D6 [9] was found to be 12.9 µM; at Cytochrome P450 2D6 [11], 22.8 µM.

For `CCc1nn(CCCN2CCN(c3cccc(Cl)c3)CC2)c(=O)n1CCOc1ccccc1` [NEFAZODONE], the mechanism based inhibition entry at Cytochrome P450 3A4 [12] is listed as “Cytochrome P450 mechanistic inhibitor: PMID 15523046”.

In the case of `CCOP(=S)(OCC)Oc1ccc([N+](=O)[O-])cc1` [PARATHION], the mechanism based inhibition entry on Cytochrome P450 3A4 [13], at Cytochrome P450 1A2 [14] and on Cytochrome P450 2C9 [15] was “Cytochrome P450 mechanistic inhibitor: PMID 9023313” throughout.

As to `NNCCc1ccccc1` [PHENELZINE], the Ki was 1.2 µM on Cytochrome P450 2C8 [3] and 54.3 µM at Cytochrome P450 2C8 [16]. The inactivation rate constant (kinact) was 0.00283 s⁻¹ at CYP2C8 [17] and 0.00405 s⁻¹ on CYP2C8 [18].

On to `S=C=NCCc1ccccc1` [PHENETHYLISOTHIOCYANATE], for which the mechanism based inhibition result on Cytochrome P450 2B1 is “Cytochrome P450 mechanistic inhibitor: PMID 11454729”. The compound also showed a Ki on Cytochrome P450 2E1 [19] of 9.98 µM. Moreover, the kinact on CYP2E1 was 0.00565 s⁻¹.

With `COc1cc(C2Oc3cc([C@H]4Oc5cc(O)cc(O)c5C(=O)[C@@H]4O)ccc3OC2CO)ccc1O` (stereo not given in full) [SILIBININ], the Ki on Cytochrome P450 2C9 [20] was determined as 5 µM.

These data come from ChEMBL document CHEMBL1743341, “Cytochrome p450 enzymes mechanism based inhibitors: common sub-structures and reactivity” (Curr Drug Metab, 2005).
